Target: T1, mouse sweet receptor (mT1R2/mT1R3) (Mus musculus, UniProt Q925D8)
T1 construct: expressed in transfected cells
T1 sequence (Q925D8 21-858): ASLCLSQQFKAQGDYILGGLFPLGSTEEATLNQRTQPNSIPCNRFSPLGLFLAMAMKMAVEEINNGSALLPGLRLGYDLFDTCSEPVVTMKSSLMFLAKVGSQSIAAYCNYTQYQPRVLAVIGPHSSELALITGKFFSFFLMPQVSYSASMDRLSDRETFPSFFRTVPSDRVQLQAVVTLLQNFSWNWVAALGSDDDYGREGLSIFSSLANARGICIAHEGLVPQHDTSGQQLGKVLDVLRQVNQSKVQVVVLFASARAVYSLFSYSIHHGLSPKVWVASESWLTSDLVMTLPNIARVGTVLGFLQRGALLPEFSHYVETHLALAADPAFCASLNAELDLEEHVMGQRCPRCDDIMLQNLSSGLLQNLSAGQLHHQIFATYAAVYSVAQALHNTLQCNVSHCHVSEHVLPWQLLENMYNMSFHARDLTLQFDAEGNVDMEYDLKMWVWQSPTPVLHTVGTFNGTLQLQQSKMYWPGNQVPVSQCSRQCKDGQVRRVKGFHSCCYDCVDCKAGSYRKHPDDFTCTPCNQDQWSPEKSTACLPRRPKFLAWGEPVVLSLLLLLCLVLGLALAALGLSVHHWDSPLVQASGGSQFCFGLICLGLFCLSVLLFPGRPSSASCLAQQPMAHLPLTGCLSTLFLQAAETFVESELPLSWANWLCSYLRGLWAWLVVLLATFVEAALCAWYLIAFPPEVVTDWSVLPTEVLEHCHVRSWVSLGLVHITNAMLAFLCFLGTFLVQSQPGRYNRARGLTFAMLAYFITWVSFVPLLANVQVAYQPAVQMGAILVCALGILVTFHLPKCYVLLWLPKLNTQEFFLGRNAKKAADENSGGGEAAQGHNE
T1 sequence (Q925I4 20-843 partner): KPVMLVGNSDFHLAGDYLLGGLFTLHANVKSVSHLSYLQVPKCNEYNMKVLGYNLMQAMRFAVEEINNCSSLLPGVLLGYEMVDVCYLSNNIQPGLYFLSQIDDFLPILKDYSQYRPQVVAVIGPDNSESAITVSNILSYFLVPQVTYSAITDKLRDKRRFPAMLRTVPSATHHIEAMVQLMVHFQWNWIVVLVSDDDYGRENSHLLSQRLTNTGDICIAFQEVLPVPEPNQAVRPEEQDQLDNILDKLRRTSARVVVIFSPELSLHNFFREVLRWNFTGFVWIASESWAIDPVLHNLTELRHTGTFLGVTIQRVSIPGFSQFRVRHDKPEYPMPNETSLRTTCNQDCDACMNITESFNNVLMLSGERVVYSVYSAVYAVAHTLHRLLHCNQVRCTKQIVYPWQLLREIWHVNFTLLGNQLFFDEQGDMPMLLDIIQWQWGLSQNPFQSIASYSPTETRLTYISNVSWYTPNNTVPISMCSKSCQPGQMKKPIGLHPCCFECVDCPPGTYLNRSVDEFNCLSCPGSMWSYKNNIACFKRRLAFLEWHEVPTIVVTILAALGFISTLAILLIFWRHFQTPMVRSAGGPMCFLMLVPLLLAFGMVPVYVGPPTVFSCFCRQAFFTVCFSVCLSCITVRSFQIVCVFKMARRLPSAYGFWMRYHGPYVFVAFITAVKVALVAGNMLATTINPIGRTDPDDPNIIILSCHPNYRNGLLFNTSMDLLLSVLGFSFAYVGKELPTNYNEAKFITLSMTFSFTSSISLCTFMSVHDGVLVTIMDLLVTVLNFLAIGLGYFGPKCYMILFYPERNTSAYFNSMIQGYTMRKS
Assay: sweet receptor inhibition assay, mouse receptor
Type: cell-based
Text: The human T1R3 transmembrane domain determines sensitivity to lactisole, phenoxy herbicides, and fibrates. Inhibition of the receptor's response to sucralose occurred only in the presence of the transmembrane domain of human T1R3. […] Chimeric receptors of T1R3 contained the extracellular portion of human or mouse receptor and the transmembrane domain and C-terminal domain from mouse or human receptor: mh indicates the presence of the mouse extracellular domain and human transmembrane domain; hm indicates the presence of the human extracellular domain and mouse transmembrane domain.

In the case of `CC(C)(Oc1ccc(Cl)cc1)C(=O)O` [clofibric acid], the “effect on the mouse receptor” value is reported as “no effect”.
